From patent publication US20230151003A1, “COMPOUNDS AND METHODS OF USE” (Exelixis, Inc., priority 2020, published 2023) come the findings set out here.

What all share (type): cell-based
The target in one experiment is T1, Mer (Homo sapiens, UniProt Q12866).
T1 construct: host or cells: 293A cells (Thermo Fisher #R70507)
T1 sequence (Q12866 21-999): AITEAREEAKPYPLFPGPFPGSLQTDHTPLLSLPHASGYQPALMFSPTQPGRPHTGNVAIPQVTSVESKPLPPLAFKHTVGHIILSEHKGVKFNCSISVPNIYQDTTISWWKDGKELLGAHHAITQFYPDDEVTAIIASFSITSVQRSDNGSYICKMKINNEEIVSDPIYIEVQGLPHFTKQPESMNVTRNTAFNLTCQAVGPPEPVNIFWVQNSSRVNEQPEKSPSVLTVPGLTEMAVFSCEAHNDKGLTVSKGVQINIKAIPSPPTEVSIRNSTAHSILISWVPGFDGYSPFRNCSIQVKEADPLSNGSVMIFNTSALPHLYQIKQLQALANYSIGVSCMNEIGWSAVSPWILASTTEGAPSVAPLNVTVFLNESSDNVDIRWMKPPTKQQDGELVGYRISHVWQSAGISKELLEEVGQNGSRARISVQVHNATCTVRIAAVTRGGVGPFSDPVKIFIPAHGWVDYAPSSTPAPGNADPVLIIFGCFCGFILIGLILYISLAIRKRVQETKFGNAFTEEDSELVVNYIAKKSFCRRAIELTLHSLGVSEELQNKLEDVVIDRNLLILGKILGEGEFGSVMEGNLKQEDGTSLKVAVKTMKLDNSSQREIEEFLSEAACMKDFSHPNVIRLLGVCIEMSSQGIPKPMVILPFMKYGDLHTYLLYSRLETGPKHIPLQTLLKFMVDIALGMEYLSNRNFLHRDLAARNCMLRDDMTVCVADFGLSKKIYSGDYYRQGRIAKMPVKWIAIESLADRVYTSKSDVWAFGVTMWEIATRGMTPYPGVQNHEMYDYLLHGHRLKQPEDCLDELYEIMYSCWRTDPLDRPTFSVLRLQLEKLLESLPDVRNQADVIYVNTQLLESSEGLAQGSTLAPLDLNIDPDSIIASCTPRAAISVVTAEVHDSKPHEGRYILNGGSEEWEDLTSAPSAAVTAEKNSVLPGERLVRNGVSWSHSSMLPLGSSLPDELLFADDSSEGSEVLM
In words: Mer autophosphorylation ELISA in transient transfected 293A cells. To be noted: Table 3 Cellular Activities; MERTK-transfected 293A cells, phospho-Mer ELISA. As for the experimental part: 293A cells (Thermo Fisher #R70507) were seeded at 1.5×10^6 cells/well onto 100 mm dish (Greiner #664169), in DMEM (Thermo Fisher #11995-040) containing 10% FBS (Thermo Fisher #26140-079), 1% MEM NEAA (Thermo Fisher #11140-050), 1% GlutaMax (Thermo Fisher #35050-061), and 1% Penicillin Streptomycin (Thermo Fisher #15140-122). 293A cells were incubated at 37° C., 5% CO2 for 24 h and then transfected with 6μg MERTK DNA (Genecopoeia #EX-Z8208-M02) using TransIT LT1 transfection reagent (Mirus-Bio #MIR2305). After 24 h incubation, the transfected 293A cells were seeded at 1×10^5 cells/well onto 96-well plates (Corning #3904) in DMEM growth medium overnight. Test compounds were serially diluted to produce an 8-point dose curve in fresh serum-free medium to a final concentration of 0.3% DMSO (vehicle) and added to the cells and incubated for 1 h. Cells were then immediately lysed with 150 μL of cold 1× lysis buffer […], 137 mM sodium chloride, 2 mM EDTA, 10% glycerol, 1% NP-40 alternative, 1 mM activated sodium orthovanadate, 1 mM PefaBloc SC (Sigma-Aldrich #11429868001), protease/phosphatase inhibitor tablet (Thermo Fisher #A32959)]. Lysates were clarified by centrifugation and 50 μL/well added into the human phospho-Mer DuoSet IC ELISA (R&D Systems #DYC2579-2). Assay was performed according to manufacturer's instructions and sample phospho-Mer concentrations were extrapolated using human phospho-Mer control (R&D Systems #841793) as a standard. Positive control wells (100% activity) contained DMSO-treated cell lysates. Negative control wells (0% activity) contained reference inhibitor-treated cell lysates. IC50 values were calculated by nonlinear regression analysis using a 4-parameter logistic curve fit in ActivityBase XE (IDBS).

In the next experiment the target is KDR (Homo sapiens, UniProt P35968). Nature of the experiment: KDR autophosphorylation ELISA in HUVEC cells. More on the design: endogenous in cells; host or cells: HUVEC (Lonza #C2519A). To be noted: Table 3 Cellular Activities, VEGF165-stimulated, phospho-KDR ELISA. As for the experimental part:
Human umbilical vein endothelial cells or HUVEC (Lonza #C2519A) were seeded at 2×10^4 cells/well onto 96-well plates (Corning #3904), in EGM-2 growth medium (Lonza #CC-3162) containing 1% Penicillin Streptomycin (Thermo Fisher #15140-122). HUVEC cells were incubated at 37° C., 5% CO2 for 24 h and then starved for 24 h in serum-free EBM-2 basal medium (Lonza #CC-3156) containing 1% Penicillin Streptomycin. Test compounds were serially diluted to produce an 8-point dose curve in fresh serum-free medium to a final concentration of 0.3% DMSO (vehicle) and added to the cells and incubated for 1 h. Cells were then stimulated with 100 ng/mL recombinant human VEGF165 (R&D Systems #293-VE-500) for 5 min, washed with cold PBS, and immediately lysed with 130 μL of cold 1× lysis buffer [20 mM Tris, 137 mM sodium chloride, 2 mM EDTA, 10% glycerol, 1% NP-40 alternative, 1 mM activated sodium orthovanadate, 1 mM PefaBloc SC (Sigma-Aldrich #11429868001), protease/phosphatase inhibitor tablet (Thermo Fisher #A32959)]. Lysates were collected and 100 μL/well added into the human phospho-KDR DuoSet IC ELISA (R&D Systems #DYC1766-2). Assay was performed according to manufacturer's instructions and sample phospho-KDR concentrations were extrapolated using human phospho-KDR control (R&D Systems #841421) as a standard. Positive control wells (100% activity) contained VEGF165-stimulated, DMSO-treated cell lysates. Negative control wells (0% activity) contained non-stimulated cell lysates. IC50 values were calculated by nonlinear regression analysis using a 4-parameter logistic curve fit in ActivityBase XE (IDBS).

A further experiment concerns the target Met (Homo sapiens, UniProt P08581). In words: Met autophosphorylation ELISA in PC-3 cells. More on the design: endogenous in cells; host or cells: PC-3 prostate cancer cells (ATCC #CRL-1435). To be noted: Table 3 Cellular Activities, HGF-stimulated, phospho-Met ELISA, read-out: c-Met IC50. As for the experimental part:
PC-3 prostate cancer cells (ATCC #CRL-1435) were seeded at 4×10^4 cells/well onto 24-well plates (Greiner #662165), in DMEM (Thermo Fisher #11995-040) containing 10% FBS (Thermo Fisher #26140-079), 1% MEM NEAA (Thermo Fisher #11140-050), 1% GlutaMax (Thermo Fisher #35050-061), and 1% Penicillin Streptomycin (Thermo Fisher #15140-122). PC-3 cells were incubated at 37° C., 5% CO2 for 24 h and then starved for 3 h in serum-free medium. Test compounds were serially diluted to produce an 8-point dose curve in fresh serum-free medium to a final concentration of 0.3% DMSO (vehicle) and added to the cells and incubated for 1 h. Cells were then stimulated with 100 ng/mL recombinant human HGF (R&D Systems #294-HG-250) for 10 min, washed with cold PBS, and immediately lysed with 130 μL of cold 1× lysis buffer [20 mM Tris, 137 mM sodium chloride, 2 mM EDTA, 10% glycerol, 1% NP-40 alternative, 1 mM activated sodium orthovanadate, 1 mM PefaBloc SC (Sigma-Aldrich #11429868001), protease/phosphatase inhibitor tablet (Thermo Fisher #A32959)]. Lysates were clarified by centrifugation and 100 μL/well added into the PathScan phospho-Met (panTyr) Sandwich ELISA (Cell Signaling Technology #7333). Assay was performed according to manufacturer's instructions. Positive control wells (100% activity) contained HGF-stimulated, DMSO-treated cell lysates. Negative control wells (0% activity) contained HGF-stimulated, reference inhibitor-treated cell lysates. IC50 values were calculated by nonlinear regression analysis using a 4-parameter logistic curve fit in ActivityBase XE (IDBS).

Chain of KDR (P35968 20-1356): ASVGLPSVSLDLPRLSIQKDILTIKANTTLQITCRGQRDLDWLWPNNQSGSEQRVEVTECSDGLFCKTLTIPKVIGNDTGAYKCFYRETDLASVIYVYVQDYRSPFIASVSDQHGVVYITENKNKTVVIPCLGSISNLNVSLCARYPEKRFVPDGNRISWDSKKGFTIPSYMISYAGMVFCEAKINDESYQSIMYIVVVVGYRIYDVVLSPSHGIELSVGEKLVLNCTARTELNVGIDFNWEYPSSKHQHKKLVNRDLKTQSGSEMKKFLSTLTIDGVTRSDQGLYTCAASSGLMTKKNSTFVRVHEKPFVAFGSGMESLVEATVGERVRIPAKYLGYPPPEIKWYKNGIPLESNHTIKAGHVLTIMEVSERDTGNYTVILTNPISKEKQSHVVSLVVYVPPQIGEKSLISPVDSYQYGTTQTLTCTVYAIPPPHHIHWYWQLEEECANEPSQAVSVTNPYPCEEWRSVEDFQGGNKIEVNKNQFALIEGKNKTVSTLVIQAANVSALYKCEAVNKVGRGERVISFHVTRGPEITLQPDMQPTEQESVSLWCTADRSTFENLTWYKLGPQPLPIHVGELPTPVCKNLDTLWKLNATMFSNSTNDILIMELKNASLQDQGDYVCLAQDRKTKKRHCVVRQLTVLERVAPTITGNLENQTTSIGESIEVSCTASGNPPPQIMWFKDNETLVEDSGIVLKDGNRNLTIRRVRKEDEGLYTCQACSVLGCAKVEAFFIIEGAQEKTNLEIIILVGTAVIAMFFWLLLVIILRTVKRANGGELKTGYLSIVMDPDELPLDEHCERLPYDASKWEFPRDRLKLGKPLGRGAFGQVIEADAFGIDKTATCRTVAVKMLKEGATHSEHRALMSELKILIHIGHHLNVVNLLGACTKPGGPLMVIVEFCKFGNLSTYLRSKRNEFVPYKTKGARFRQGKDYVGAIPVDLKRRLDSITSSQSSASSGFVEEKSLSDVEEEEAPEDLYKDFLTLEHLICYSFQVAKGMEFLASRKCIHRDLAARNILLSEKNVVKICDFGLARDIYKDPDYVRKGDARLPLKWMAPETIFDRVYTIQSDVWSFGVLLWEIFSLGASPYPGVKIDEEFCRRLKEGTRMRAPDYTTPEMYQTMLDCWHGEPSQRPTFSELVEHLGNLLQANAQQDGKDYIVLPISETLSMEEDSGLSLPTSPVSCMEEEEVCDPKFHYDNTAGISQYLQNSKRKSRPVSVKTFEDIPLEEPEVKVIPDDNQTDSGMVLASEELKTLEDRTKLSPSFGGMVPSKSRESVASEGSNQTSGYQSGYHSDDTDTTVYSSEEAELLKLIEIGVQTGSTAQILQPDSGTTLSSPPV
Chain of Met (P08581 25-1390): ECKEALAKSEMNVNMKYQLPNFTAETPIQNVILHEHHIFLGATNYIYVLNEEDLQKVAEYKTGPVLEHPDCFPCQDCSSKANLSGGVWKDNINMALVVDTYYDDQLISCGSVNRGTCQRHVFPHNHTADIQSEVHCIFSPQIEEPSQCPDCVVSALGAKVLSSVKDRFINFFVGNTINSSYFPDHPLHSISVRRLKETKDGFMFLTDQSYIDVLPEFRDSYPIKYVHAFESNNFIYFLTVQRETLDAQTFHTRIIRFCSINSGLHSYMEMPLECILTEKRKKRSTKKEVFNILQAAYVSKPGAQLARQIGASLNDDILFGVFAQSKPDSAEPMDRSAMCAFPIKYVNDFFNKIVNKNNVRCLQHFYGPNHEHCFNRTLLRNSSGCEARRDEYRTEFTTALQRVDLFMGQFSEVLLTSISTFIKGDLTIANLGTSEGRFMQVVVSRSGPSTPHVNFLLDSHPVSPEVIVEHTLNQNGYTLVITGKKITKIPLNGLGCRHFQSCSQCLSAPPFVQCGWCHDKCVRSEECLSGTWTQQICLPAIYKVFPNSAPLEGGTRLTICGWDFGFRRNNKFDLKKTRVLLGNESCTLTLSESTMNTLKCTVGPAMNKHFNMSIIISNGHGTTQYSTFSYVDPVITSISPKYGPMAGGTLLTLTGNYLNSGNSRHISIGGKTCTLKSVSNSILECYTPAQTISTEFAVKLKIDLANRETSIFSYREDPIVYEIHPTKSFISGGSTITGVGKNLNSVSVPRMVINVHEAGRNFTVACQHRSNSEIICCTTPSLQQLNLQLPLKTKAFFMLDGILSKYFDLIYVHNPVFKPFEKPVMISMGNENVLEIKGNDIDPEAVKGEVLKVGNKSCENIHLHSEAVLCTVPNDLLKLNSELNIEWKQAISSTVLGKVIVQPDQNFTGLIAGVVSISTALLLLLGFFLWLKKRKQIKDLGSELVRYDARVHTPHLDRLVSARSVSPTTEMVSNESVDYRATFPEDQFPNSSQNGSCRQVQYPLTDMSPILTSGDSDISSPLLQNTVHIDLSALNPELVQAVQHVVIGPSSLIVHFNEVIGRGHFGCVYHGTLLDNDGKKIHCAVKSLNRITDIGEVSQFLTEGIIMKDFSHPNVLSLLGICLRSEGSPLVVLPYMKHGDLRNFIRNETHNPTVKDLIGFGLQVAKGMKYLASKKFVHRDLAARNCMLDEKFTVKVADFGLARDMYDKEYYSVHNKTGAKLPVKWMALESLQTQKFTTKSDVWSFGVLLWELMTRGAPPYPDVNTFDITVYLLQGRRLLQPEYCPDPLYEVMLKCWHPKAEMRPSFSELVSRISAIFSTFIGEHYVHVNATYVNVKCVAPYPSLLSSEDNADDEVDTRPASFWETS

Regarding `COc1cnc2c(Oc3ccc(NC(=O)c4c(C)n(C)c(C)c(-c5ccco5)c4=O)cc3)ccnc2c1` [Compound 161, 5-(Furan-2-yl)-N-[4-[(7-methoxy-1,5-naphthyridin-4-yl)oxy]phenyl]-1,2,6-trimethyl-4-oxopyridine-3-carboxamide], the 50% inhibitory concentration (IC50) at Mer was not above 100 nM; against KDR, 300 to 1000 nM; at Met, not above 100 nM.

Regarding `COc1cnc2c(Oc3ccc(NC(=O)c4c(C)n(C)c(C)c(-c5ccco5)c4=O)cc3F)ccnc2c1` [Compound 162, N-[3-Fluoro-4-[(7-methoxy-1,5-naphthyridin-4-yl)oxy]phenyl]-5-(furan-2-yl)-1,2,6-trimethyl-4-oxopyridine-3-carboxamide], the IC50 at Mer is not above 100 nM; on KDR, 300 to 1000 nM; at Met, not above 100 nM.

In the case of `COCc1nc(C)c(-c2ncccc2C)c(O)c1C(=O)Nc1ccc(Oc2ccnc3cc(OC)c(OC)nc23)c(F)c1` [Compound 196, N-[4-[(6,7-Dimethoxy-1,5-naphthyridin-4-yl)oxy]-3-fluorophenyl]-4-hydroxy-2-(methoxymethyl)-6-methyl-5-(3-methylpyridin-2-yl)pyridine-3-carboxamide], the concentration for half-maximal inhibition (IC50) against Mer, on KDR and at Met was not above 100 nM throughout.

As for `COCc1nc(C)c(-c2cccc(C)n2)c(O)c1C(=O)Nc1ccc(Oc2ccnc3cc(OC)c(OC)nc23)c(F)c1` [Compound 197, N-[4-[(6,7-Dimethoxy-1,5-naphthyridin-4-yl)oxy]-3-fluorophenyl]-4-hydroxy-2-(methoxymethyl)-6-methyl-5-(6-methylpyridin-2-yl)pyridine-3-carboxamide], the concentration for half-maximal inhibition (IC50) against Mer, on KDR and on Met was not above 100 nM each time.

On to `COCc1nc(C)c(-c2ccnc(C)c2)c(O)c1C(=O)Nc1ccc(Oc2ccnc3cc(OC)c(OC)nc23)c(F)c1` [Compound 198, N-[4-[(6,7-Dimethoxy-1,5-naphthyridin-4-yl)oxy]-3-fluorophenyl]-4-hydroxy-2-(methoxymethyl)-6-methyl-5-(2-methylpyridin-4-yl)pyridine-3-carboxamide], for which the IC50 at Mer, against KDR and on Met was not above 100 nM in each case.

Turning to `CCOCCOCCOc1cc(-n2c(C)ccc(C(=O)Nc3ccc(Oc4ccnc5cc(OC)c(OC)nc45)c(F)c3)c2=O)ccn1` [Compound 224, N-[4-[(6,7-Dimethoxy-1,5-naphthyridin-4-yl)oxy]-3-fluorophenyl]-1-[2-[2-(2-ethoxyethoxy)ethoxy]pyridin-4-yl]-6-methyl-2-oxopyridine-3-carboxamide], the half-inhibitory concentration (IC50) against Mer, against KDR and on Met was not above 100 nM throughout.

Take `COc1cc2nccc(Oc3ccc(NC(=O)c4ccc(C)n(-c5ccnc(OC(C)C)c5)c4=O)cc3F)c2nc1OC` [Compound 225, N-[4-[(6,7-Dimethoxy-1,5-naphthyridin-4-yl)oxy]-3-fluorophenyl]-6-methyl-2-oxo-1-(2-propan-2-yloxypyridin-4-yl)pyridine-3-carboxamide]: the values for the IC50 against Mer, against KDR and on Met were not above 100 nM, 300 to 1000 nM and not above 100 nM, respectively.

Turning to `COc1cc2nccc(Oc3ccc(NC(=O)c4cc(C(C)=O)c(C)n(-c5ccoc5)c4=O)cc3)c2nc1OC` [Compound 239, 5-Acetyl-N-[4-[(6,7-dimethoxy-1,5-naphthyridin-4-yl)oxy]phenyl]-1-(furan-3-yl)-6-methyl-2-oxopyridine-3-carboxamide], the IC50 at Mer, at KDR and at Met was 300 to 1000 nM each time.

`COCCOc1cnc2c(Oc3ccc(NC(=O)c4c(C)n(C)c(C)c(-c5coc6ccccc56)c4=O)cc3F)ccnc2c1` [Compound 265, 5-(1-Benzofuran-3-yl)-N-[3-fluoro-4-[[7-(2-methoxyethoxy)-1,5-naphthyridin-4-yl]oxy]phenyl]-1,2,6-trimethyl-4-oxopyridine-3-carboxamide]: the IC50 against Mer, against KDR and on Met was 300 to 1000 nM each time.

On to `COCCOc1cnc2c(Oc3ccc(NC(=O)c4c(C)n(C)c(C)c(-c5ccco5)c4=O)cc3F)ccnc2c1` [Compound 266, N-[3-Fluoro-4-[[7-(2-methoxyethoxy)-1,5-naphthyridin-4-yl]oxy]phenyl]-5-(furan-2-yl)-1,2,6-trimethyl-4-oxopyridine-3-carboxamide], for which the 50% inhibitory concentration (IC50) on Mer is not above 100 nM; against KDR it was 300 to 1000 nM; at Met it was not above 100 nM.
